The record followed here is ChEMBL document CHEMBL4184178, “Identification of potent lysophosphatidic acid receptor 5 (LPA5) antagonists as potential analgesic agents” (Bioorg Med Chem, 2018).

Data set [1] deals with Lysophosphatidic acid receptor 5 (Rattus norvegicus, UniProt D4ADR1). The data set can be described thus: Antagonist activity at rat LPA5 receptor expressed in CHO cells assessed as inhibition of LPA-induced cAMP accumulation after 30 mins by Lance Ultra assay. It is filed as cell-based. (cAMP levels reflect the balance of adenylyl cyclase and phosphodiesterase activity.)

For data set [2], the system named is Rattus norvegicus. Put plainly: Analgesic effect in rat chronic constriction injury model assessed as reduction in mechanical allodynia at 60 mg/kg, ip by Von Frey test. In kind it is functional, organism-based.
Data set [3] can be described thus: Plasma concentration in rat at 60 mg/kg, ip measured after 0.5 hrs by LC-MS analysis. It is filed as ADME, organism-based.
A short description of data set [4]: Brain to plasma partition coefficient, Kp of the compound in rat at 60 mg/kg, ip measured after 0.5 hrs by LC-MS analysis. It is filed as ADME, organism-based.
Data set [5] is described as follows: Drug uptake in rat brain at 60 mg/kg, ip measured after 0.5 hrs by LC-MS analysis. In kind it is ADME, organism-based. Particulars: read-out: Drug uptake.
Data set [6] concerns Rattus norvegicus. The data set can be described thus: Analgesic effect in rat chronic constriction injury model assessed as reduction in mechanical allodynia at 10 mg/kg, ip by Von Frey test. In kind it is functional, organism-based.

Each structure is given as a SMILES string. The source made the active and inactive calls. The calls are words filed in the database; no cut-off is given here.

Sequence of Lysophosphatidic acid receptor 5 (D4ADR1 whole entry): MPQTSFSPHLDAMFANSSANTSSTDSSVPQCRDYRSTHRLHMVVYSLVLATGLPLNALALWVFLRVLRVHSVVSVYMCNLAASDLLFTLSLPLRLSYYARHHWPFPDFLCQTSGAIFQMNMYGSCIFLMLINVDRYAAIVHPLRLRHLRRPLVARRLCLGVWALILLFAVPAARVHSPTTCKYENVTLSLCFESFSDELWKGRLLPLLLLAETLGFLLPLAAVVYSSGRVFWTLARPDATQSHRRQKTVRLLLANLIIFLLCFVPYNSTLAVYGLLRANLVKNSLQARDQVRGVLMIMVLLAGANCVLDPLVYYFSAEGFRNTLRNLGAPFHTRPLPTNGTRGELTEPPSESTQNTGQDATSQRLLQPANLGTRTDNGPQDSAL

One may read the IC50 as the concentration that gives 50% inhibition. With `COc1cc2c(C(=O)N3CCCCCC3)cn(C(C)C)c(=O)c2cc1OC`, in data set [1], the IC50 was over 30000 nM.
On to `CCCCCCN(C)C(=O)c1cn(-c2ccc(OCC)cc2)c(=O)c2cc(OC)c(OC)cc12`, for which the IC50 in data set [1] is over 10000 nM.
On to `COc1cc2c(C(=O)N3CCCCCC3)cn(-c3ccc(C)c(C)c3)c(=O)c2cc1OC`, for which the IC50 in data set [1] came out at 720 nM.
`CCOc1ccc(-n2cc(C(=O)N3CCC(F)CC3)c3cc(OC)c(OC)cc3c2=O)cc1`: the IC50 in data set [1] was determined as 750 nM.
The Kp is tissue or fluid exposure divided by exposure in the circulation. Regarding `CCN1CCc2ccc(-n3cc(C(=O)N4CCC(F)CC4)c4cc(OC)c(OC)cc4c3=O)cc21`, in the data set on Rattus norvegicus [2], the outcome was Active. Further, the concentration at 0.5 h in data set [3] is 9.06 µM; in data set [5], 1.22 µM. The molecule further came in with a Kp at 0.5 h in data set [4] of 0.13. For the same molecule, the IC50 in data set [1] worked out at 120 nM. The outcome in the data set on Rattus norvegicus [6] was inactive.
Consider `CCN1CCc2ccc(-n3cc(C(=O)N4CCCCCC4)c4cc(OC)c(OC)cc4c3=O)cc21`, for which, in data set [1], the IC50 was found to be 110 nM.
Consider `COc1cc2c(C(=O)N3CCCCCC3)cn(-c3ccc(C(N)=O)cc3)c(=O)c2cc1OC`, for which, in data set [1], the IC50 was over 30000 nM.
The same measure, in the same setting: the figure for `CCc1ccc(-n2cc(C(=O)N3CCCCCC3)c3cc(OC)c(OC)cc3c2=O)cc1` is 570 nM; for `CCOc1ccc(-n2cc(C(=O)N3CCCCCC3)c3cc(OC)c(OC)cc3c2=O)cc1` it is 1800 nM; for `COc1cc2c(C(=O)N3CCCCCC3)cn(-c3cccc(N(C)C)c3)c(=O)c2cc1OC` it is 130 nM.
As to `COc1cc2c(C(=O)N3CCCCCC3)cn(-c3ccc(F)cc3)c(=O)c2cc1OC`, in data set [1], the IC50 was over 3000 nM.
